Calls of active or inactive are those of the source. No cut-off for these calls is given here.
Assays:
[1] = molecular target: T1, Histone deacetylase 2 (Homo sapiens, UniProt Q92769); assay: Inhibition of recombinant human HDAC2 using p53 (Ac-RHKK(Acetyl)-AMC) as substrate preincubated for 5 mins followed by substrate addition and measured after 30 mins by fluorescence based analysis
[2] = tested on: HEK293; assay: Cytotoxicity against HEK293 cells assessed as reduction in cell viability at 50 uM after 24 hrs by alamar blue assay; format: toxicity, cell-based; details: human, hek293, 24 h
[3] = molecular target: Histone deacetylase 3 (Homo sapiens, UniProt O15379); assay: Inhibition of recombinant human HDAC3 using p53 (Ac-RHKK(Acetyl)-AMC) as substrate preincubated for 5 mins followed by substrate addition and measured after 30 mins by fluorescence based analysis
[4] = molecular target: T2, Histone deacetylase 8 (Homo sapiens, UniProt Q9BY41); assay: Inhibition of recombinant human HDAC8 using (Abz-SRGK(thio-TFA)FFRR-NH2) as substrate preincubated for 5 mins followed by substrate addition by fluorescence based analysis
T2 sequence (Q9BY41 whole entry): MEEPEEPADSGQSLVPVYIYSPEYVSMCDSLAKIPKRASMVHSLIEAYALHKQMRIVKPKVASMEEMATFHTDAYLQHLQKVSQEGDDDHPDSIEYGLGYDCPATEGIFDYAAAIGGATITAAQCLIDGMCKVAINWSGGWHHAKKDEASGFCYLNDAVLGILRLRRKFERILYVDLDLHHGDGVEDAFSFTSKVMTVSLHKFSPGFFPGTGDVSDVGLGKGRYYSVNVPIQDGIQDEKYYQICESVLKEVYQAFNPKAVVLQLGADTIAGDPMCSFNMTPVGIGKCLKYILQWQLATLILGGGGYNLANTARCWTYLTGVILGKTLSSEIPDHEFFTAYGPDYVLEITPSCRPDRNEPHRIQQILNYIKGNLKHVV

[5] = molecular target: T3, Histone deacetylase 1 (Homo sapiens, UniProt Q13547); assay: Inhibition of recombinant human HDAC1 using p53 (Ac-RHKK(Acetyl)-AMC) as substrate preincubated for 5 mins followed by substrate addition and measured after 90 mins by fluorescence based analysis
[6] = molecular target: T4, Histone deacetylase 8 (Homo sapiens) (UniProt Q9BY41); assay: Inhibition of HDAC8 in human Jurkat T cells assessed as increase in H3K27 acetylation at 10 uM after 6 hrs by Western blot analysis; format: cell-based
T4 sequence (whole entry): T2 sequence (Q9BY41 whole entry)

[7] = molecular target: Histone deacetylase 4 (Homo sapiens, UniProt P56524); assay: Inhibition of HDAC4 (unknown origin)
[8] = molecular target: T5, Protein deacetylase HDAC6 (Homo sapiens, UniProt Q9UBN7); assay: Inhibition of recombinant human HDAC6 (unknown origin)
T5 sequence (Q9UBN7 whole entry): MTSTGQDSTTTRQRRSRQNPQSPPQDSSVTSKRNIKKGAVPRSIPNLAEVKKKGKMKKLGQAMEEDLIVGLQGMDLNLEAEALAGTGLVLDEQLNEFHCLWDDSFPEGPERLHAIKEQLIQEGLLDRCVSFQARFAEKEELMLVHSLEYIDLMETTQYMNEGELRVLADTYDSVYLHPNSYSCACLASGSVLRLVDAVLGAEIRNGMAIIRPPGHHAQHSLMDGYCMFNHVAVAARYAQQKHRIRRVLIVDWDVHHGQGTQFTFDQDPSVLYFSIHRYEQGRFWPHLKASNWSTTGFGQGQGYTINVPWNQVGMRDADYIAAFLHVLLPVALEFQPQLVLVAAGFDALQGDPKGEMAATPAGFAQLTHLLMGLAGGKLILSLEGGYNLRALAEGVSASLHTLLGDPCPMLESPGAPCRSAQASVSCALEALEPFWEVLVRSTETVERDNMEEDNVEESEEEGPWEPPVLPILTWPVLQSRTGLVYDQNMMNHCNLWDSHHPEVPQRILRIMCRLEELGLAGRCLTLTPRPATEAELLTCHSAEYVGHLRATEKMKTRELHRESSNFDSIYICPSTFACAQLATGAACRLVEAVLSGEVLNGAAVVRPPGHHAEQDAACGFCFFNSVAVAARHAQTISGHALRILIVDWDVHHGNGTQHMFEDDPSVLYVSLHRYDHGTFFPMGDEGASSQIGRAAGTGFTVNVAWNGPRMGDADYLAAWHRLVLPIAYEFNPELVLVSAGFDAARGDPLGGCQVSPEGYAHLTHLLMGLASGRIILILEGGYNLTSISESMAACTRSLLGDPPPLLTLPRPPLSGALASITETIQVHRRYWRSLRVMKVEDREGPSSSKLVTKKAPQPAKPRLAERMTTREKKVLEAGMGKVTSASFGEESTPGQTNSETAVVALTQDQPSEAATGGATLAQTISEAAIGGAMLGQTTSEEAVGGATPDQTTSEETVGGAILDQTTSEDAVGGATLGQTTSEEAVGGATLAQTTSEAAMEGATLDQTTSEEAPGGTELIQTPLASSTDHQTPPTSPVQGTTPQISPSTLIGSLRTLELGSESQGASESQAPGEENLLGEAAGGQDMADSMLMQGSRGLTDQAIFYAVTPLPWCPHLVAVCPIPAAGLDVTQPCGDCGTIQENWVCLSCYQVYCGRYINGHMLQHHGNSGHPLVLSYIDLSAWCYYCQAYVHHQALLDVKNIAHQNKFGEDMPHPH

[9] = molecular target: T6, Histone deacetylase 11 (Homo sapiens, UniProt Q96DB2); assay: Inhibition of recombinant human HDAC11 preincubated for 10 mins followed by substrate addition by fluorescence based analysis
T6 sequence (Q96DB2 whole entry): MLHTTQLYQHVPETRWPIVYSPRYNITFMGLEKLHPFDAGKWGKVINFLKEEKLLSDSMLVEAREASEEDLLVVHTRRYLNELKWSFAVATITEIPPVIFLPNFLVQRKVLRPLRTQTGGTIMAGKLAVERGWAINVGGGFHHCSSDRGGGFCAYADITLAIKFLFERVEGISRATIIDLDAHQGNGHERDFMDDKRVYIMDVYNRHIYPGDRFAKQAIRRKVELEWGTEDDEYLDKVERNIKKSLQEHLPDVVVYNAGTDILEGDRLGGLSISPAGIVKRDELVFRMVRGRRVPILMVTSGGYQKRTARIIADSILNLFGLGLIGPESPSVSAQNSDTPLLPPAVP

[10] = molecular target: T1, Histone deacetylase 2; assay: Inhibition of recombinant human HDAC2 at 10 uM using p53 (Ac-RHKK(Acetyl)-AMC) as substrate preincubated for 5 mins followed by substrate addition and measured after 30 mins by fluorescence based analysis relative to control; details: time 35.0 min
[11] = molecular target: T4, Histone deacetylase 8 (Homo sapiens); assay: Inhibition of recombinant human HDAC8 at 1 uM using (Abz-SRGK(thio-TFA)FFRR-NH2) as substrate preincubated for 5 mins followed by substrate addition by fluorescence based analysis relative to control
[12] = molecular target: T1, Histone deacetylase 2; assay: Inhibition of recombinant human HDAC2 at 1 uM using p53 (Ac-RHKK(Acetyl)-AMC) as substrate preincubated for 5 mins followed by substrate addition and measured after 30 mins by fluorescence based analysis relative to control; details: time 35.0 min
[13] = molecular target: T3, Histone deacetylase 1; assay: Inhibition of recombinant human HDAC1 at 10 uM using p53 (Ac-RHKK(Acetyl)-AMC) as substrate preincubated for 5 mins followed by substrate addition and measured after 90 mins by fluorescence based analysis relative to control; details: time 95.0 min
[14] = molecular target: T4, Histone deacetylase 8 (Homo sapiens); assay: Inhibition of recombinant human HDAC8 at 10 uM using (Abz-SRGK(thio-TFA)FFRR-NH2) as substrate preincubated for 5 mins followed by substrate addition by fluorescence based analysis relative to control
[15] = molecular target: T3, Histone deacetylase 1; assay: Inhibition of recombinant human HDAC1 at 1 uM using p53 (Ac-RHKK(Acetyl)-AMC) as substrate preincubated for 5 mins followed by substrate addition and measured after 90 mins by fluorescence based analysis relative to control; details: time 95.0 min

Chain of Histone deacetylase 3 (O15379 whole entry): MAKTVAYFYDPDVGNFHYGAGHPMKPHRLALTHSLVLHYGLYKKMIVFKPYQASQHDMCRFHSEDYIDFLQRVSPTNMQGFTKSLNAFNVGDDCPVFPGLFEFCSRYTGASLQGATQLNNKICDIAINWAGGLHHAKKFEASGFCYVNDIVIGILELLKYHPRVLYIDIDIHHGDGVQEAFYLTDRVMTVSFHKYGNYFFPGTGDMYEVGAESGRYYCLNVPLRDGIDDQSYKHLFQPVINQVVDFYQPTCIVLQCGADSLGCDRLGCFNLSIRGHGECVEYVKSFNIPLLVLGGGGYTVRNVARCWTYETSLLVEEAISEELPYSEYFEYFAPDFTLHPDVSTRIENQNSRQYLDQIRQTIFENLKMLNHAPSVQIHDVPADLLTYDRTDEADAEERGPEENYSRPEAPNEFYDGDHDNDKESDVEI
T3 sequence (Q13547 whole entry): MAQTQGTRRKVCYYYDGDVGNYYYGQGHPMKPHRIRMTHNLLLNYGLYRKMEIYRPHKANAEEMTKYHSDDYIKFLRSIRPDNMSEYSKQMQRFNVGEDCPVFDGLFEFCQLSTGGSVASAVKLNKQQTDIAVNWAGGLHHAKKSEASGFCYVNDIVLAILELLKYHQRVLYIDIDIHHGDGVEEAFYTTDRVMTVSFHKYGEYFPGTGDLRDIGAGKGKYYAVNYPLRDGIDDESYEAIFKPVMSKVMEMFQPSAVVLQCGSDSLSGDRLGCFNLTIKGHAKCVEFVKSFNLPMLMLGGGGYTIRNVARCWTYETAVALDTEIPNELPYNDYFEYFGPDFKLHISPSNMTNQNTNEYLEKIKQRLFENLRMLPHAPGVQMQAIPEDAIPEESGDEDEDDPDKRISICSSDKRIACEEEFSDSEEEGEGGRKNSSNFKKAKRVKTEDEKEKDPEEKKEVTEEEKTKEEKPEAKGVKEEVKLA
Chain of Histone deacetylase 4 (P56524 whole entry): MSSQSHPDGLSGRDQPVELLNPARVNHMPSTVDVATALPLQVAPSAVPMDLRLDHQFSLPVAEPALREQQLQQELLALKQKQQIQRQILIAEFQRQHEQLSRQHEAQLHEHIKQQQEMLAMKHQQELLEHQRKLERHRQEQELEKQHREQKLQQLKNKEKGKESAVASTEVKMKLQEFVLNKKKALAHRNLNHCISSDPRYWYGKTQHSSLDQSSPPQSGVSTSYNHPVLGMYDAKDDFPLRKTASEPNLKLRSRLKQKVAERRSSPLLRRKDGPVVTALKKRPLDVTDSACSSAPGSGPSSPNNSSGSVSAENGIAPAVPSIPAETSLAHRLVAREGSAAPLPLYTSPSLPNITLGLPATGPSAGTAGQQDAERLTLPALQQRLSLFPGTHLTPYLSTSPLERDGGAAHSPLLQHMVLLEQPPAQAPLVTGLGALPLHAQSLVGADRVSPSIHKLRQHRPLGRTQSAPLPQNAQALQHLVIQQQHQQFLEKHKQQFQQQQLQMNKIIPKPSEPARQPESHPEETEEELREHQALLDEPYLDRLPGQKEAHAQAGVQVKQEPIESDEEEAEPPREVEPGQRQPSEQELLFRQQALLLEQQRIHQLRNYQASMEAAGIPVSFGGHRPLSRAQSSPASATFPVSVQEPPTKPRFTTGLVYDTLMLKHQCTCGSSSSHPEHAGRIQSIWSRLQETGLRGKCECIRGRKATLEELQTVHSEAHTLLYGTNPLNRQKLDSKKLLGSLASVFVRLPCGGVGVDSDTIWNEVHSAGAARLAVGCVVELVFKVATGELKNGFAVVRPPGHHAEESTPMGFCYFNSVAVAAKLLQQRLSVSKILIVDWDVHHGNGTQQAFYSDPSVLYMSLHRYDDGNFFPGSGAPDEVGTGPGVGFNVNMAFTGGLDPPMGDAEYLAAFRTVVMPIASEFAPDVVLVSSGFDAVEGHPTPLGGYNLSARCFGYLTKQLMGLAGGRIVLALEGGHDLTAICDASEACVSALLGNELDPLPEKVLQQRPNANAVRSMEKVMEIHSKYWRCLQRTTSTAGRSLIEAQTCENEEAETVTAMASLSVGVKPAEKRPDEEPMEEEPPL
T1 sequence (Q92769 whole entry): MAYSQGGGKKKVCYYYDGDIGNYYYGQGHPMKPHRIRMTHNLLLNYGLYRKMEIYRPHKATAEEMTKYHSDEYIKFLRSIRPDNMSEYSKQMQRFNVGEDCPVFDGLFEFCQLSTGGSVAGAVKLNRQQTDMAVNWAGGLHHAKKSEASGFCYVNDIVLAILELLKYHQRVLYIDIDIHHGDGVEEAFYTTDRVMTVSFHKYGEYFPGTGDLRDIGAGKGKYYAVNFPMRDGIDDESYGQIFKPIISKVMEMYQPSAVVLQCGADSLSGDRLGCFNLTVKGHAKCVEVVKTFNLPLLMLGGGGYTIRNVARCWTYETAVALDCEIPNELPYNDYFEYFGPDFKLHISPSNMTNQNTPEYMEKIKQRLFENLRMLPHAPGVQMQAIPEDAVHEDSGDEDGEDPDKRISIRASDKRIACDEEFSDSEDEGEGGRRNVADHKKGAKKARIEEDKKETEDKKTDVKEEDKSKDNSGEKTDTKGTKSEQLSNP

Row | Structure (SMILES) | IC50 [1] [nM] | IC50 [3] [nM] | IC50 [4] [nM] | IC50 [5] [nM] | inhibition [6] | IC50 [7] [µM] | IC50 [8] [µM] | IC50 [9] [nM] | inhibition [10] [%] | inhibition [11] [%] | inhibition [12] [%] | inhibition [13] [%] | inhibition [14] [%] | inhibition [15] [%] | Cell viability [2] [%]
1 | CCCCNNC(=O)c1ccc(-c2ccc(CNC(C)=O)cc2)cc1 | 1100 | 350 | 360 | 620 |  |  |  |  |  |  |  |  |  |  | 80.1
2 | CCCNNC(=O)c1cnc(N2CCN(C)CC2)nc1 | 2400 | 120 | 250 | 590 |  |  |  |  |  |  |  |  |  |  | 93.6
3 | CCCCCCNNC(=O)c1cnc(N2CCN(CCc3c[nH]c4ccccc34)CC2)nc1 | 1400 | 1000 | 13 | 860 |  |  |  |  |  |  |  |  |  |  | 47.1
4 | CCCNNC(=O)c1cnc(NCc2ccc(Cl)cc2)nc1 |  | 37 |  |  |  |  |  |  | 96 | 62 | 61 | 92 | 88 | 54 | 83.2
5 | CCCCCCNNC(=O)c1cnc(NCCc2ccccc2)nc1 | 12000 | 7200 | 28 | 2200 | Active |  |  |  |  |  |  |  |  |  | 90.1
6 | CCCCCCNNC(=O)c1cnc(NCc2ccccc2)nc1 | 3200 | 3000 | 16 | 560 |  |  |  |  |  |  |  |  |  |  | 88.4
7 | CCCCCCNNC(=O)c1cnc(NCc2ccc(CNC(C)=O)cc2)nc1 | 4500 | 8500 | 19 | 960 | Active |  |  |  |  |  |  |  |  |  | 79.4
8 | CCCCCNNC(=O)c1ccc(-c2ccc(CNC(C)=O)cc2)cc1 | 2000 | 1500 | 350 | 660 |  |  |  |  |  |  |  |  |  |  | 90.8
9 | CCCCCCNNC(=O)c1cnc(N2CCN(Cc3cn(C)c4ccccc34)CC2)nc1 | 330 | 300 | 14 | 170 | Active |  |  |  |  |  |  |  |  |  | 1.6
10 | CCCCCCNNC(=O)c1ccc(CNC(C)=O)cc1 | 12000 | > 20000 | 23 | 48000 |  |  |  |  |  |  |  |  |  |  | 113.3

Continued, in another order:

Row | IC50 [1] [nM] | IC50 [3] [nM] | IC50 [4] [nM] | IC50 [5] [nM] | inhibition [6] | IC50 [7] [µM] | IC50 [8] [µM] | IC50 [9] [nM] | inhibition [10] [%] | inhibition [11] [%] | inhibition [12] [%] | inhibition [13] [%] | inhibition [14] [%] | inhibition [15] [%] | Structure (SMILES) | Cell viability [2] [%]
11 | 1200 | 1400 | 23 | 400 | Active |  |  |  |  |  |  |  |  |  | CCCCCCNNC(=O)c1cnc(N2CCN(CCc3cn(C)c4ccccc34)CC2)nc1 | 31.8
12 | 700 | 43.2 | 1000 | 250 |  | > 20 | > 20 | 2000 |  |  |  |  |  |  | CCCNNC(=O)c1cnc(NCc2ccccc2)nc1 | 80.9
13 | 920 | 110 |  | 290 | Active |  |  |  |  |  |  |  |  |  | CCCNNC(=O)c1cnc(NCc2ccc(CNC(C)=O)cc2)nc1 | 93.1
14 | > 20000 | > 20000 | 63 | 8300 | Active |  |  |  |  |  |  |  |  |  | CCCCCCNNC(=O)c1cnc(NCc2cccc3ccccc23)nc1 | 65.7
15 |  | 60 |  |  |  |  |  |  | 92 | 43 | 55 | 89 | 87 | 71 | CCCNNC(=O)c1cnc(NCc2ccccc2Cl)nc1 | 80.7
16 |  | 58 |  |  |  |  |  |  |  | 33 |  | 88 | 83 | 66 | CCCNNC(=O)c1cnc(NCc2cc(Cl)ccc2Cl)nc1 | 78.2
17 | 310 | 100 | 5.9 | 170 | Active | > 20 | > 20 | 41 |  |  |  |  |  |  | CCCCCCNNC(=O)c1cnc(N2CCN(Cc3c[nH]c4ccccc34)CC2)nc1 | 2.18
18 | > 20000 | > 20000 | 46 | > 20000 |  | > 20 | > 20 | 8600 |  |  |  |  |  |  | CCCCCCNNC(=O)c1cccc(NCc2ccccc2)c1 | 71.2
19 |  | 81 |  |  |  |  |  |  | 93 | 36 | 46 | 91 | 83 | 53 | CCCNNC(=O)c1cnc(NCc2cccc3ccccc23)nc1 | 78.9
20 |  | 200 |  |  |  |  |  |  | 93 | 66 | 46 | 85 | 94 | 61 | CCCCNNC(=O)c1cnc(NCc2ccccc2)nc1 | 88.9
21 | 5500 | 1600 |  | 1600 |  |  |  |  |  |  |  |  |  |  | CCCNNC(=O)c1ccc(CNC(C)=O)cc1 | 81.2
